Data reported in US6274334A, “Monoclonal antibody, cell line and immunoassay for ractopamine” (The United States of America as represented by the …, priority 2000, dated 2001).
Several values for one entry are separate records, joined by “and”; a condition that tells them apart may be missing. Equal entries are not always repeated. Structures can show the parent of a compound that is named as a salt.

Key:
[1] = test system: antibody produced by hybridoma 5G10; assay: Competitive indirect ELISA for specificity of the 5G10 antibody (buffer); assay type: binding, mouse; conditions: for IC50: means of three separate experiments on three different days, racemic ractopamine average of 15 experiments; for Cross-reactivity: ratio of IC50 for racemic ractopamine to that of test compound times 100; for competition curve: competitors up to 10,000 ng/mL; for poorer ligand relative to (1R,3R) stereoisomer of ractopamine: relative to (1R,3R) ractopamine
Method: The supernatant culture fluid from the cloned hybridomas may also be screened to select for those producing antibodies having a high affinity for ractopamine. Affinity may be measured using a variety of well known techniques, such as ELISA, RIA or equilibrium dialysis using labelled ractopamine. Competitive indirect ELISA (CI-ELISA) is preferred, and is conducted at a final antibody concentration (dilution from tissue culture supernatant) to give 50% of maximal binding to a ractopamine coated substrate or assay well. In accordance with this embodiment, the antibody containing supernatant is added to a ractopamine conjugate-coated solid substrate such as the wells of an assay plate, together with a range of concentrations of free ractopamine as a competitor. Following incubation and washing, bound antibody in the wells is determined in the same manner as the indirect-ELISA. Percent inhibition may be calculated as (1-B/B0)×100 where B is the optical density (OD) of a well with a competitor and B0 is the mean OD of the wells without competitor (control). […] However, for even greater accuracy, the affinity may be alternatively measured at 50% inhibition (IC50).
(§1) The checkerboard method was used to determine the optimum amount of coating antigen-ractopamine-glutarate-BSA (0.1 to 1 μg/well), primary antibody (1:4000 to 1:14,000), and secondary antibody (1:5000 to 1:50,000) required for the indirect competition ELISA. […] Ninety-six well flat bottom ELISA plates were coated with 500 ng/well of ractopamine-glutarate-BSA in 50 mM bicarbonate buffer, pH 9.6, and allowed to shake for 2 hours using an orbital shaker after which the plates were washed 5 times with PBST. Excess binding sites in each well were blocked by incubating with a 1% solution of Teleostean® cold water fish gelatin for 1 hour after which each well was washed 5 times with PBST. Primary antibody (5G10), diluted to 1:14,000, was added (50 μL/well) in the presence of competitor (100 μL/well) and was incubated for 1.5 hours. Competitors were incubated at concentrations of 0, 0.1, 0.5, 1, 5, 10, 50, 100, 500, 1000, 5000, and 10,000 ng/mL. A racemic ractopamine calibration curve was used in every experiment as a quality control. Washing wells five times with PBST terminated the reactions. Goat anti-mouse IgG peroxidase conjugate, diluted 1:50,000 (100 μL/well), was incubated for 1 hour. A TMB substrate solution was used during color development (30 min); the color development was stopped by adding 50 μL/well of 2 N H2 SO4. All incubations were conducted at 37° C. The plates were read at 450 nm and the data analyzed using a four-parameter logistic equation for the competitors that produced competition curves.

[2] = test system: hogs; conditions: dietary, relative to untreated control animals; cited from earlier work
[3] = test system: polyclonal antibodies; conditions: polyclonal antibodies generated from rabbits; cited from earlier work
[4] = Wicker et al. 1995; cited from earlier work
[5] = test system: ractopamine antibody; assay: Immunoaffinity column retention; assay type: binding, mouse; conditions: C-14 labeled, eluted with 0-100% MeOH
Method: Ten milliliters of acites containing ractopamine antibody were diluted with 0.1 M acetate buffer (1:3) and centrifuged. The diluted ascites was passed through a protein-G column and non-bound material was washed off with 0.1 M acetate buffer, pH 5.0, followed by 0.1 M glycine, pH 2.8 to elute the IgG. The protein concentration was determined by OD280 and confirmed by the method of Bradford. The IgG purity was confirmed by 10% SDS-PAGE. Purified IgG was conjugated with CNBr-Sepharose according to a standard procedure. Five milligrams of IgG was conjugated with 1 mL of CNBr-Sepharose to produce the immunoaffinity beads. The immunoaffinity beads were packed to a screening column. A solution containing approximately equal amounts of C-14 labeled ractopamine and ractopamine glucuronide was applied to the column. The column was subsequently eluted with 0, 10%, 30%, 50%, 70% and 100% MeOH; eluants were collected and counted for C-14 activity to verify recoveries. […] Thus, the ractopamine IAC retained both ractopamine and ractopamine metabolites, and has the potential to be used for the rapid isolation of ractopamine and (or) ractopamine metabolites from solution. Such a technique would have wide application in the preparation of samples undergoing a ractopamine confirmatory assay.

[6] = test system: 5G10 monoclonal antibody; assay: Competitive ELISA in diluted bovine urine (matrix effects); assay type: binding, mouse
Method: as §1
Ractopamine (0, 0.1, 0.5, 1, 5, 10, 50, 100, 500, 1000, 5000, and 10,000 ng/mL) was added to bovine urine samples diluted 1:2, 1:5, 1:10, and 1:20 with PBST. Urine was collected from a Holstein cow that had not received any ractopamine treatment. Immunoassays in diluted matrices were run according to the procedure described in Example 2. The resulting competition data were fit to a four-parameter logistic equation using the program manager provided by the plate reader (Bio-Rad® Laboratories, Hercules, Calif.) and the IC50 values were determined. The IC50 and B0 from each diluted urine curve were compared with IC50 and B0 values generated from the PBST standard curve. Ractopamine in a 1:10 urine dilution at concentrations of 1, 5, 10, 20 ng/mL were divided and stored at -20° C. until used. For determination of intra-assay variation, each concentration of the spiked urine samples was pipetted into 12 wells, along with the appropriate standard curve ([…], 12 levels) and the data processed using the spiked samples as replicated unknowns. Inter-assay variation was determined in a similar manner on five separate days with duplicate wells for each level of spiked sample.

[7] = species dosed with ractopamine HCl; cited from earlier work
[8] = in words; cited from earlier work

IC50 [1] | SMILES | Cross-reactivity [1] | further results
1.59 ± 0.09 ng/mL | C[C@H](CCc1ccc(O)cc1)NCCc1ccc(O)cc1 [R-des-OH-ractopamine] | 169% | –
1519 ± 116 ng/mL | OCc1cc(C(O)CNCCCCCCOCCCCc2ccccc2)ccc1O (stereo not drawn) [Salmeterol] | 0.2% | –
25.2 ± 1.9 ng/mL | C[C@@H](CCc1ccc(O)cc1)NCCc1ccc(O)cc1 [S-des-OH-ractopamine] | 10.7% | –
73.8 ± 4.4 ng/mL | CC(NCCc1ccc(O)cc1)C(O)c1ccc(O)cc1 (stereo not drawn) [Ritodrine] | 3.6% | –
263 ± 20 ng/mL | CC(CCc1ccc(O[C@@H]2O[C@H](C(=O)O)[C@@H](O)[C@H](O)[C@H]2O)cc1)NCC(O)c1ccc(O)cc1 (single isomer, unassigned) [Ractopamine glucuronide A] | 1% | poorer ligand relative to (1R,3R) stereoisomer of ractopamine [1]: over 100 times
50.3 ± 8.1 ng/mL | CC(CCc1ccc(O)cc1)NCCc1ccc(O)c(O)c1 (racemic) [Dobutamine] | 5.3% | –
1391 ± 127 ng/mL | CC(COc1ccccc1)NC(C)C(O)c1ccc(O)cc1 (stereo not drawn) [Isoxsuprine] | 0.2% | –
0.70 ± 0.04 ng/mL | CC(CCc1ccc(O)cc1)NCC(O)c1ccc(O[C@@H]2O[C@H](C(=O)O)[C@@H](O)[C@H](O)[C@H]2O)cc1 (stereo partly drawn) [Ractopamine glucuronide C] | 384% | identification as metabolite [7]: has been identified in various species dosed experimentally with ractopamine HCl; affinity relative to (1R,3R) ractopamine ([1]; in words): bound to the antibody with an affinity almost as great as (1R,3R) ractopamine
87.8 ± 5.0 ng/mL | CC(CCc1ccc(O[C@@H]2O[C@H](C(=O)O)[C@@H](O)[C@H](O)[C@H]2O)cc1)NCC(O)c1ccc(O)cc1 (single isomer, unassigned) [Ractopamine glucuronide B] | 3.1% | poorer ligand relative to (1R,3R) stereoisomer of ractopamine [1]: over 100 times

Continued, compound first:

SMILES | IC50 [1] | Cross-reactivity [1] | further results
C[C@@H](CCc1ccc(O)cc1)NC[C@@H](O)c1ccc(O)cc1 [(1S, 3S) -ractopamine] | 140 ± 23 ng/mL | 1.9% | –
CC(C)(C)NCC(O)c1cc(Cl)c(N)c(Cl)c1 (stereo not drawn) [Clenbuterol] | – | < 0.1% | competition curve [1]: did not produce competition curves; cross reaction with the 5G10 antibody ([1]; in words): did not cross react with the 5G10 antibody
C[C@H](CCc1ccc(O)cc1)NC[C@@H](O)c1ccc(O)cc1 [(1S, 3R) -ractopamine] | 2.00 ± 0.37 ng/mL | 134% | –
COc1ccc(C(O)CNC(C)CCc2ccc(O)cc2)cc1 (stereo not drawn) [LY227273] | 2.6 ng/mL and 2.62 ± 0.08 ng/mL | 103% | –
CCCCNCC(O)c1ccc(O)cc1 (stereo not drawn) [Bamethane] | 831 ± 11 ng/mL | 0.3% | –
CC(Cc1ccc(O)cc1)NCC(O)c1cc(O)cc(O)c1 (stereo not drawn) [Fenoterol] | 2682 ± 350 ng/mL | 0.1% | –
CC(CCc1ccc(O)cc1)NCC(O)c1ccc(O)cc1 (racemic) [Ractopamine (racemic), (1R*, 3R*), (1R*, 3S*)-4-hydroxy-β-[[[3-(4-hydroxyphenyl)-1-methylpropyl]amino]methyl]-benzenemethanol hydrochloride] | – | 100% | growth and carcass effects [2]: increased growth rates, feed efficiencies, and greater yields of boneless, closely trimmed retail cuts; IC50 [3]: 4.2 ng/mL; cross-reaction in immunoassay kits [4]: cross-react poorly with ractopamine; retention on immunoaffinity column [5]: The radioactivity was mainly in the 50% and 100% MeOH fractions; IC50 ([6]; buffer (PBST)): 2.49 ng/mL; IC50 ([6]; urine dilution 1:2): 11.58 ng/mL; IC50 ([6]; urine dilution 1:5): 4.62 ng/mL; IC50 ([6]; urine dilution 1:10): 3.16 ng/mL; IC50 ([6]; urine dilution 1:20): 3.02 ng/mL; limit of detection ([1]; 80% B/B0 (IC20)): 0.5 ng/mL; IC50 ([1]; hydrochloride): 2.69 ± 0.36 ng/mL; IC50 ([1]; listed as racemic ractopamine, hydrochloride): 2.7 ng/mL
C[C@@H](CCc1ccc(O)cc1)NC[C@H](O)c1ccc(O)cc1 [(1R, 3S) -ractopamine] | 291 ± 32 ng/mL | 0.9% | decrease of antibody binding (factor) ([1]; α-methyl group in (S) configuration): 100
C[C@H](CCc1ccc(O)cc1)NC[C@H](O)c1ccc(O)cc1 [(1R, 3R) -ractopamine] | 0.55 ± 0.09 ng/mL | 489% | detection limit ([1]; in PBST): 0.1 ng/mL; biological activity [8]: confers biological activity to the molecule
CC(C)(C)NCC(O)c1ccc(O)c(CO)c1 (stereo not drawn) [Salbutamol] | – | < 0.1% | competition curve [1]: did not produce competition curves
